Data as given in publication PMC10466253, “Derivatives of 9-phosphorylated acridine as butyrylcholinesterase inhibitors with antioxidant activity and the ability to inhibit β-amyloid self-aggregation: potential therapeutic agents for Alzheimer’s disease” (Frontiers in Pharmacology, 2023).
Marks after values point to notes of the source that are not given here.

Tests used:
Porcine liver CES = experiment: In vitro inhibition of CES activity (spectrophotometric, 4-NPA substrate); type: biochemical; details: compound concentration 20 µM; mean ± SEM, n = 3
Experimental: (§1) Enzymes, substrates, and reference compounds were from Sigma-Aldrich (St. Louis, MO, United States). […] Experimental conditions: K,Na-phosphate buffer (100 mM), 25°С, pH 7.5 for AChE and BChE and pH 8.0 for CES assay. Measurements were carried out on a BioRad Benchmark Plus microplate spectrophotometer (Hercules, CA, United States).
(§2) Test compounds were dissolved in DMSO; final concentration of solvent in the incubation mixture was 2% (v/v).

Equine serum BChE = molecular target: T1, Equine serum BChE (Equus caballus, UniProt P81908); experiment: In vitro inhibition of BChE activity (spectrophotometric, BTCh iodide substrate); type: biochemical; details: for inhibition at 20 µM: read-out: Equine serum BChE, (%) inhibition; for Equine serum BChE, (%) inhibition: compound concentration 20 µM, mean ± SEM, n = 3
T1 construct: Equine serum BChE, (%); purchased Sigma-Aldrich; host or cells: equine serum
Experimental: as §1, §2

β-amyloid (1-42) (Aβ42) = molecular target: T2, β-amyloid (1-42) (Aβ42) (Homo sapiens, UniProt P05067); experiment: Inhibition of Aβ42 self-aggregation, thioflavin T fluorescence method; type: biochemical; details: Aβ42 50 µM, compound 100 µM, 24 h, 37°C; mean ± SEM, n = 3
T2 construct: purchased AnaSpec Inc
Experimental: Lyophilized HFIP-pretreated Aβ42 (AnaSpec Inc., 0.5 mg) was dissolved in DMSO to obtain a stable 500 μM solution. […] Myricetin and Propidium iodide in the same concentration were used as references.
Therefore, the decrease in ThT fluorescence in the presence of the studied compound correlates with its activity to inhibit the formation of amyloid aggregates.

[1] = FRAP (ferric reducing antioxidant power) assay; details: Trolox equivalents; 1 h, 37°C, pH 3.6
Experimental: The ferric reducing antioxidant power (FRAP) assay proposed by [Benzie and Strain (1996)]; [Benzie and Strain (1999)] modified to be performed in 96-well microplates as described in detail in [Makhaeva et al. (2020)] was used. 10 μL (0.5 mM) of the tested or reference compounds were mixed with 240 µL of FRAP reagent (2.5 mL of 10 mM TPTZ (2,4,6-tris(2-pyridyl)-s-triazine) solution in 40 mM HCl, 2.5 mL of 20 mM FeCl3 in distilled water and 25 mL of 0.3 M acetate buffer pH 3.6); the absorbance of the mixture was measured spectrophotometrically (λ = 593 nm) with a FLUOStar OPTIMA microplate reader at 600 nm after a 1 h incubation at 37°C against a blank. Trolox was used as a reference compound. The results were expressed as Trolox equivalents (TE)—the ratio of the concentrations of Trolox and the test compound resulting in the same effect on ferric reducing activity.

Human erythrocyte AChE = molecular target: T3, Human erythrocyte AChE (Homo sapiens, UniProt P22303); experiment: In vitro inhibition of AChE activity (spectrophotometric, ATCh iodide substrate); type: biochemical; details: for inhibition at 20 µM: read-out: Human erythrocyte AChE, (%) inhibition; for Human erythrocyte AChE, (%) inhibition: compound concentration 20 µM, mean ± SEM, n = 3
T3 construct: Human erythrocyte AChE, (%); purchased Sigma-Aldrich; host or cells: human erythrocytes
Experimental: as §1, §2

[2] = ABTS radical cation scavenging activity assay; details: for ABTS•+-scavenging activity, TEAC: Trolox equivalent antioxidant capacity, ratio of slopes compound/Trolox; for IC50: concentration for 50% reduction of ABTS radical cation
Experimental: Radical scavenging activity of the compounds was evaluated using the ABTS radical cation (2,2ʹ-azinobis-(3-ethylbenzothiazoline-6-sulfonic acid), ABTS^•+) decolorization assay ([Re et al., 1999]), with minor modifications described in detail in [Makhaeva et al. (2019a)]. To prepare the solution of ABTS^•+, equal volumes of aqueous solutions of 7 mM ABTS and 2.45 mM potassium persulfate were incubated for 12–16 h at room temperature in the dark. Radical scavenging capacity of the compounds was determined by mixing 10 μL of compound solution in DMSO with 240 μL of ABTS^•+ working solution in ethanol (100 μM final concentration). The reduction in ABTS^•+ absorbance was measured spectrophotometrically at 734 nm using a xMark UV/VIS microplate spectrophotometer (Bio-Rad, Hercules, CA, United States) for 1 h with an interval of 10 min compared to a standard synthetic antioxidant Trolox (6-hydroxy-2,5,7,8-tetramethylchroman-2-carboxylic acid). Ascorbic acid was used as a positive control.
The antioxidant activity of the compounds was reported as Trolox equivalent antioxidant capacity (TEAC values) as the ratio of the slopes of the concentration−response curves, test compound/Trolox. The IC50 values for the test compounds were also determined.

BChE = molecular target: T4, BChE (Equus caballus, UniProt P81908); experiment: Kinetic studies of BChE inhibition (Lineweaver-Burk); type: biochemical, equine
T4 construct: Equine serum BChE, (%); purchased Sigma-Aldrich; host or cells: equine serum
Experimental: Mechanism of BChE inhibition was assessed by a detailed analysis of enzyme kinetics with three increasing concentrations of inhibitor and six substrate concentrations as described in detail in [Makhaeva et al. (2017)].
Lineweaver-Burk plots-double reciprocal representations of Michaelis-Menten parameters-were used to assess the type of inhibition.

T3 sequence (P22303 32-617 isoform P22303-2 limits assumed): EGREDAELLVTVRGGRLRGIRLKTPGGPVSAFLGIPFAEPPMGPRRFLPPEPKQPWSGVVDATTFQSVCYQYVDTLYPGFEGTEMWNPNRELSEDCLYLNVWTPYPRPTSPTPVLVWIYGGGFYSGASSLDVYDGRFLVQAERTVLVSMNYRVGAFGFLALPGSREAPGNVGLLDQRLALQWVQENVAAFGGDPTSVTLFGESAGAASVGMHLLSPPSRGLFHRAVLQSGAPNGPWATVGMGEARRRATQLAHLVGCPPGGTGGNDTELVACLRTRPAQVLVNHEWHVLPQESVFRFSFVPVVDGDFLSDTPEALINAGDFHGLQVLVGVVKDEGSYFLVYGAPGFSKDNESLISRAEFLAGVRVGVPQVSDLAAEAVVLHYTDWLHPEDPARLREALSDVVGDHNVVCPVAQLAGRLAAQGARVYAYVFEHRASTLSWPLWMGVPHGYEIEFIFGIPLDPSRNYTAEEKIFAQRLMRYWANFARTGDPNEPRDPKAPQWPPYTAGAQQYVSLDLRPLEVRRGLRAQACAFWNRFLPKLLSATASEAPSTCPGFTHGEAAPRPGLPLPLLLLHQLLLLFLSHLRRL
T1 sequence (P81908 whole entry): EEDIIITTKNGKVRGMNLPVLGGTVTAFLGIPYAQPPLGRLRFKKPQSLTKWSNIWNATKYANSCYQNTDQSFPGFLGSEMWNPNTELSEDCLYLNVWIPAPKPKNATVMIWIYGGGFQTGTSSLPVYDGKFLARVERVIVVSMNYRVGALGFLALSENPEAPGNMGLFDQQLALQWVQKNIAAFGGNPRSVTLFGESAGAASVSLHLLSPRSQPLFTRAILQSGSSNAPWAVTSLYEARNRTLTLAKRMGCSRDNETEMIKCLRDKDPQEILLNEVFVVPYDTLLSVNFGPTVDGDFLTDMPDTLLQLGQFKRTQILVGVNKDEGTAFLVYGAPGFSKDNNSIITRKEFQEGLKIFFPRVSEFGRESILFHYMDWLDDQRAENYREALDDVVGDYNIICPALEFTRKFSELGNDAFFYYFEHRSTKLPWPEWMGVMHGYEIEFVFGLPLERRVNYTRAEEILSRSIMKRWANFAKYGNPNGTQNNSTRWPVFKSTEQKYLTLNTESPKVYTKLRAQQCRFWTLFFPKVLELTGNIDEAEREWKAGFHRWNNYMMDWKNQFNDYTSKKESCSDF
T2 sequence (P05067 672-713 limits assumed): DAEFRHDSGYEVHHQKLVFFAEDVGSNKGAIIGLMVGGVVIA
T4 sequence (P81908 whole entry): as the sequence (P81908 whole entry) above

Structure (SMILES)	Porcine liver CES, (%) inhibition (Porcine liver CES)	IC50 (Equine serum BChE)	inhibition at 100 µM (β-amyloid (1-42) (Aβ42))	FRAP Fe3+-reducing activity, TE [1]	inhibition at 20 µM (Human erythrocyte AChE)	ABTS•+-scavenging activity, TEAC [2]	IC50 [2]	inhibition at 20 µM (Equine serum BChE)	Inhibition of Aβ42 self-aggregation, (%) (β-amyloid (1-42) (Aβ42))	other results
O=P(Oc1ccccc1)(Oc1ccccc1)C1c2ccccc2Nc2ccccc21 [Compound 1c]	21.6 ± 1.7%	48 ± 3.1 µM	19.8 ± 1.5%	1.13 ± 0.02 TE	6.3 ± 0.9%	1.13 ± 0.05	17.8 ± 1.1 µM			
CCOP(=O)(OCC)C1c2ccccc2Nc2ccccc21 [Compound 1b]	n.а		8.1 ± 0.8%	1.15 ± 0.01 TE	4.4 ± 1.1%	0.97 ± 0.03	20.8 ± 1.3 µM	16.9 ± 1.5%		
COP(=O)(OC)C1c2ccccc2Nc2ccccc21 [Compound 1a]	n.а			1.60 ± 0.01 TE		0.99 ± 0.04	21.3 ± 1.4 µM		4.9 ± 0.4%	Equine serum BChE, (%) inhibition (Equine serum BChE): 21.3 ± 1.7%; Human erythrocyte AChE, (%) inhibition (Human erythrocyte AChE): 5.3 ± 1.3%
O=P(OCc1ccccc1)(OCc1ccccc1)C1c2ccccc2Nc2ccccc21 [Compound 1d, 9-bis(benzyloxy)phosphoryl-9,10-dihydroacridine]	18.7 ± 1.4%	2.9 ± 0.23 µM	58.9 ± 4.7%	0.97 ± 0.06 TE	7.6 ± 1.2%	0.97 ± 0.04	20.8 ± 1.3 µM			type of BChE inhibition (BChE; Lineweaver-Burk analysis): mixed type of inhibition; Ki (BChE; steady state inhibition, read-out: competitive component (Ki) of BChE inhibition): 2.22 ± 0.19 µM
O=P(OCc1ccccc1)(OCc1ccccc1)c1c2ccccc2nc2ccccc12 [Compound 2d]	20.4 ± 1.8%	6.9 ± 0.55 µM			10.8 ± 1.5%				n.а	times less effective BChE inhibitor than the corresponding dihydroacridine (1d) (Equine serum BChE; ratio of BChE IC50 values): 2.4
CCOP(=O)(OCC)c1c2ccccc2nc2ccccc12 [Compound 2b]	10.5 ± 1.3%			0.07 ± 0.01 TE	10.4 ± 1.2%			10.8 ± 1.5%	n.а	
O=P(CCc1ccccc1)(CCc1ccccc1)C1c2ccccc2Nc2ccccc21 [Compound 1e]	22.2 ± 1.7%	3.22 ± 0.25 µM	46.9 ± 4.2%	1.10 ± 0.01 TE	8.8 ± 2%	0.9 ± 0.03	21.8 ± 0.9 µM			time to reach the maximum degree of ABTS•+ radical binding [2]: 30 min
O=P(CCc1ccccc1)(CCc1ccccc1)c1c2ccccc2nc2ccccc12 [Compound 2e]	13.5 ± 1.7%				10.4 ± 1.3%			25.7 ± 2%	n.а	
O=C1O[C@H]([C@@H](O)CO)C(O)=C1O [Ascorbic acid, reference compound]				1.23 ± 0.11 TE		0.97 ± 0.04	22.4 ± 2.2 µM			
O=P(Oc1ccccc1)(Oc1ccccc1)c1c2ccccc2nc2ccccc12 [Compound 2c]	27.6 ± 2.2%		3.6 ± 0.3%		12.4 ± 1.4%			32.7 ± 2.6%		
O=P(CCc1ccc(Cl)cc1)(CCc1ccc(Cl)cc1)C1c2ccccc2Nc2ccccc21 [Compound 1f]		21.7 ± 1.7 µM	34.1 ± 2.7%	0.81 ± 0.02 TE	6.4 ± 1%	0.80 ± 0.03	22.6 ± 0.7 µM			time to reach the maximum degree of ABTS•+ radical binding [2]: 30 min
O=[N+]([O-])c1ccc(OP(=O)(O)Oc2ccc([N+](=O)[O-])cc2)cc1 [BNPP, reference compound]	99.1 ± 0.93 ^e %									
CC[N+](C)(CC)CCC[n+]1c(-c2ccccc2)c2cc(N)ccc2c2ccc(N)cc21.[I-].[I-] [Propidium iodide, reference compound]									90.7 ± 7.1%	
Cc1c(C)c2c(c(C)c1O)CCC(C)(C(=O)O)O2 (centres unmarked) [Trolox, 6-hydroxy-2,5,7,8-tetramethylchroman-2-carboxylic acid, reference compound]				1.0 TE		1.0	20.1 ± 0.7 µM			
COP(=O)(OC)c1c2ccccc2nc2ccccc12 [Compound 2a]	4.3 ± 1.1%			0.08 ± 0.02 TE					4.9 ± 0.4%	Equine serum BChE, (%) inhibition (Equine serum BChE): 9.0 ± 1.4%; Human erythrocyte AChE, (%) inhibition (Human erythrocyte AChE): 9.1 ± 1.2%
O=P(CCc1ccc(Cl)cc1)(CCc1ccc(Cl)cc1)c1c2ccccc2nc2ccccc12 [Compound 2f]	18.4 ± 1.4%		11.2 ± 0.8%		15.2 ± 1.3%			20.4 ± 1.6%		
